{"source": "patent US20200085782A1", "about": "“COMPOSITIONS AND METHODS OF ENHANCING OR AUGMENTING TYPE I IFN PRODUCTION” (Mavupharma, Inc., priority 2016, published 2020)", "key": {"human recombinant ENPP1 [1]": {"molecular_target": "T1, human recombinant ENPP1 (Homo sapiens, UniProt P22413)", "T1 sequence (P22413 1-925)": "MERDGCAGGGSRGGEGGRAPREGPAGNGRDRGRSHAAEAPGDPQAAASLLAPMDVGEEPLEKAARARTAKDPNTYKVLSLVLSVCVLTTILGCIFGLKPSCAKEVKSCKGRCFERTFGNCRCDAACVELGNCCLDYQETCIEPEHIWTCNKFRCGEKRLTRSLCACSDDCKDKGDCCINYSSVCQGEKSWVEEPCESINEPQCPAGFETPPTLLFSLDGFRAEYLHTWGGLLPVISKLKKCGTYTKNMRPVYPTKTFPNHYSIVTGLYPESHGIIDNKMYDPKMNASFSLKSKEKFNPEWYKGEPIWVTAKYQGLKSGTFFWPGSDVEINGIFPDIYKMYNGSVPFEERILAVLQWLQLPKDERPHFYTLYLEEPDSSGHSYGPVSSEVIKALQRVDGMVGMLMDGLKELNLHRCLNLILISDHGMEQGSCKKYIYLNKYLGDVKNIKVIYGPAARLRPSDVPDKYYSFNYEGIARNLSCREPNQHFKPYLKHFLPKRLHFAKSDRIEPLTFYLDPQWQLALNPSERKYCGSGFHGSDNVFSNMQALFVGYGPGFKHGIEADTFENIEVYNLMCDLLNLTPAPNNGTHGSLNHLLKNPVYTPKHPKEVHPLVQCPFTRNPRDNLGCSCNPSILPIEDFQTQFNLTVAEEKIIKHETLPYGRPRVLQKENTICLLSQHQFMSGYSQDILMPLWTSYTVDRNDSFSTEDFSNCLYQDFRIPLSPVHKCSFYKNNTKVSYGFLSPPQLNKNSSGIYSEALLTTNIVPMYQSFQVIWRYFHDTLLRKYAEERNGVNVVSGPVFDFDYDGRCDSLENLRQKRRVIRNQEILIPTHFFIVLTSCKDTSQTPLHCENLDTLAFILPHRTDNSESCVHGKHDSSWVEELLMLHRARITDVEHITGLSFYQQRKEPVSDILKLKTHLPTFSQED", "experiment": "ENPP1 assay with 2′,3′-cGAMP substrate (AMP-Glo)", "format": "biochemical", "protocol": "The AMP-Glo™ Assay Kit contains two reagents that are added sequentially. The first converts the 5′-AMP produced in the reaction to 5′ADP. The second converts the 5′-ADP to 5′ATP and reacts the 5′-ATP with the luciferase/luciferin pair to produce the luminescence signal. […] Inhibitors are added at final concentrations ranging between 10 μM and 30 pM depending on the compound. Duplicate wells are run at each inhibitor concentration. The final assay volume is 18 μL and human recombinant ENPP1 is present at 5 ng/well. The assay is initiated by the addition of substrate (20 μM 2′3′cGAMP final concentration), and incubated for 30 minutes at 37° C. To stop the reaction, 12 μl of AMP-Glo reagent I is added and the plate is incubated for 60 minutes at room temperature. 25 μl of AMP-detection reagent is then added and the wells are again incubated for 60 minutes at room temperature. The luminescence signal is then measured using a plate-reading luminometer. Each assay plate also includes wells with no enzyme added (MIN OD) and wells with no inhibitor added (MAX OD). The percent inhibition of ENPP1 for each sample is then calculated as: […]\n(§1) IC50 values of compounds were calculated by entering the percent inhibition values into a sigmoidal variable slope nonlinear regression model in GraphPad Prism® software. IC50 values were converted to Ki values using the Cheng-Prusoff equation2 where the Km was 15 μM, based on internal determinations."}, "THP-1 cells": {"test_system": "THP-1 cells", "experiment": "PDE inhibitors library screen on cGAMP activated THP-1 cells, IFNβ ELISA", "format": "cell-based, human", "conditions": "THP-1 cells activated with 2′,3′-cGAMP; test compound 10 μM; 24 hours; FIG. 3A-3C", "protocol": "THP-1 Cell Activation and Screening of Test Compounds: • (a) THP-1 cells from bulk cultures were counted and suspended in RPMI 1640, 20% FBS, 2.5 mM L-alanyl-L-glutamine at a concentration of 5.5×10^6 cells/mL. The THP-1 cells were subsequently seeded into 96 well round bottom plates—volume of 180 μL/well (1×10^6 cells per well), and the plate was incubated for 1 hour at 37° C., 5% CO2. • (b) Test compounds comprising known phosphodiesterase inhibitors (PDEs), were screened in triplicate (N1, N2, N3) on THP-1 cells. For compound screening, test compounds were assayed at a final concentration of 10 μM. A 200 μM (0.2 mM) working solution of each compound was prepared by diluting 10 mM DMSO stock solutions of each compound in media at a dilution of 50:1 (1640, 20% FBS, 2.5 mM L-alanyl-L-glutamine). […] Cell culture supernatants were then transferred to a clean plate and stored at −80° C. until ready to analyze for IFNβ levels. • (j) IFNβ levels in cell culture supernatants were determined by ELISA according to the manufacturer's instructions (VeriKine Human IFNβ Assay). • (k) The interpolated data was normalized to vehicle control, or unstimulated control, and analyzed."}, "human recombinant ENPP1 [2]": {"molecular_target": "T1, human recombinant ENPP1", "experiment": "ENPP1 assay with AMP-pNP substrate (ATP analog), absorbance at 405 nm", "format": "biochemical", "conditions": "read-out: ENPP1 inhibition Ki, AMP-pNP Substrate", "protocol": "ENPP1 is an ectonucleotidase that hydrolyzes both the STING activator 2′,3′-cGAMP and 5′ATP (ATP). In some instances, an inhibitor of ENPP-1 is capable of selectively blocking the hydrolysis of 2′,3′-cGAMP while only minimally inhibiting the hydrolysis of ATP. […] The ENPP1 assay with AMP-pNP substrate is conducted in a buffer containing 50 mM Tris-HCl (pH 8.5)/250 mM NaCl/0.5 mM CaCl2/1 μM ZnCl2/0.1% DMSO. Inhibitors are added at final concentrations ranging between 10 μM and 30 pM depending on the compound. Duplicate wells are run at each inhibitor concentration. The final assay volume is 40 μL and human recombinant ENPP1 is present at 60 ng/well. The assay is initiated by the addition of substrate (300 μM AMP-pNP final concentration), and incubated for 20 minutes at 37° C. The absorbance at 405 nm is then read in a Tecan® plate reader. Each assay plate also includes wells with no enzyme added (MIN OD) and wells with no inhibitor added (MAX OD). The percent inhibition of ENPP1 for each sample is then calculated as: […]\nas §1, with “equation,” for “equation2”, “151” for “15”, “determinations” for “determinations.”"}}}
{"smiles": "COc1cc2ncnc(N3CCC(CCN)CC3)c2cc1OC", "note": "[Compound 5]", "values": [{"measurement": "Substrate Selectivity Ki Ratio AMP-pNP/2′3′cGAMP", "setting": "human recombinant ENPP1 [1]; Ki (AMP-pNP)/Ki (2′3′-cGAMP)", "value": ">642"}]}
{"smiles": "COc1cc2ncnc(N3CCN(C(=O)CNS(N)(=O)=O)CC3)c2cc1OC", "note": "[Compound 15]", "values": [{"measurement": "Substrate Selectivity Ki Ratio AMP-pNP/2′3′cGAMP", "setting": "human recombinant ENPP1 [1]; Ki (AMP-pNP)/Ki (2′3′-cGAMP)", "value": 57.3}]}
{"smiles": "COc1cc2ncnc(-c3ccc4c(c3)CN(S(N)(=O)=O)CC4)c2cc1OC", "note": "[Compound 21]", "values": [{"measurement": "Substrate Selectivity Ki Ratio AMP-pNP/2′3′cGAMP", "setting": "human recombinant ENPP1 [1]; Ki (AMP-pNP)/Ki (2′3′-cGAMP)", "value": 36.2}]}
{"smiles": "COc1cc2nc(N)nc(N3CCC(CCNS(N)(=O)=O)CC3)c2cc1OC", "note": "[Compound 18]", "values": [{"measurement": "Substrate Selectivity Ki Ratio AMP-pNP/2′3′cGAMP", "setting": "human recombinant ENPP1 [1]; Ki (AMP-pNP)/Ki (2′3′-cGAMP)", "value": 47.7}]}
{"smiles": "COc1cc2ncnc(N3CCC4(CC3)CN(S(C)(=O)=O)C4)c2cc1OC", "note": "[Compound 24]", "values": [{"measurement": "Substrate Selectivity Ki Ratio AMP-pNP/2′3′cGAMP", "setting": "human recombinant ENPP1 [1]; Ki (AMP-pNP)/Ki (2′3′-cGAMP)", "value": 18.7}]}
{"smiles": "COc1cc2ncnc(-c3ccc(CNS(N)(=O)=O)cc3)c2cc1OC", "note": "[Compound 17]", "values": [{"measurement": "Substrate Selectivity Ki Ratio AMP-pNP/2′3′cGAMP", "setting": "human recombinant ENPP1 [1]; Ki (AMP-pNP)/Ki (2′3′-cGAMP)", "value": 48.3}]}
{"smiles": "COc1cc2ncc(C#N)c(N3CCC(CCNS(C)(=O)=O)CC3)c2cc1OC", "note": "[Compound 7]", "values": [{"measurement": "Substrate Selectivity Ki Ratio AMP-pNP/2′3′cGAMP", "setting": "human recombinant ENPP1 [1]; Ki (AMP-pNP)/Ki (2′3′-cGAMP)", "value": 244}]}
{"smiles": "COc1cc2nc(-c3ccccc3)nc(N3CCC(CCNS(N)(=O)=O)CC3)c2cc1OC", "note": "[Compound 23]", "values": [{"measurement": "Substrate Selectivity Ki Ratio AMP-pNP/2′3′cGAMP", "setting": "human recombinant ENPP1 [1]; Ki (AMP-pNP)/Ki (2′3′-cGAMP)", "value": ">23.9"}]}
{"smiles": "CN1CNc2ncnc(N3CCC(CCNS(C)(=O)=O)CC3)c21", "note": "[Compound 9]", "values": [{"measurement": "Substrate Selectivity Ki Ratio AMP-pNP/2′3′cGAMP", "setting": "human recombinant ENPP1 [1]; Ki (AMP-pNP)/Ki (2′3′-cGAMP)", "value": ">128"}]}
{"smiles": "CCN(C)S(=O)(=O)NCCC1CCN(c2ncnc3cc(OC)c(OC)cc23)CC1", "note": "[Compound 12]", "values": [{"measurement": "Substrate Selectivity Ki Ratio AMP-pNP/2′3′cGAMP", "setting": "human recombinant ENPP1 [1]; Ki (AMP-pNP)/Ki (2′3′-cGAMP)", "value": ">89.0"}]}
{"smiles": "COc1cc2nccc(Oc3ccc(NS(=O)(=O)c4ccccc4)cc3)c2cc1OC", "note": "[Compound 25]", "values": [{"measurement": "Substrate Selectivity Ki Ratio AMP-pNP/2′3′cGAMP", "setting": "human recombinant ENPP1 [1]; Ki (AMP-pNP)/Ki (2′3′-cGAMP)", "value": ">6.80"}, {"measurement": "selectivity for inhibition of cGAMP over AMP-pNP hydrolysis by ENPP1", "setting": "human recombinant ENPP1 [1]; Ki (AMP-pNP)/Ki (2′3′-cGAMP)", "value": "~6.8", "unit": "fold"}]}
{"smiles": "COc1cc2ncnc(NCc3ccc(NS(N)(=O)=O)cc3)c2cc1OC", "note": "[Compound 22]", "values": [{"measurement": "Substrate Selectivity Ki Ratio AMP-pNP/2′3′cGAMP", "setting": "human recombinant ENPP1 [1]; Ki (AMP-pNP)/Ki (2′3′-cGAMP)", "value": 34.7}]}
{"smiles": "CNc1nc(N2CCC(CCNS(N)(=O)=O)CC2)c2cc(OC)c(OC)cc2n1", "note": "[Compound 20]", "values": [{"measurement": "Substrate Selectivity Ki Ratio AMP-pNP/2′3′cGAMP", "setting": "human recombinant ENPP1 [1]; Ki (AMP-pNP)/Ki (2′3′-cGAMP)", "value": ">38.7"}]}
{"smiles": "CS(=O)(=O)N1CCc2ccc(-c3ncnc4ccccc34)cc2C1", "note": "[Compound 8]", "values": [{"measurement": "Substrate Selectivity Ki Ratio AMP-pNP/2′3′cGAMP", "setting": "human recombinant ENPP1 [1]; Ki (AMP-pNP)/Ki (2′3′-cGAMP)", "value": ">158"}]}
{"smiles": "O=c1cc(-c2ccc(O)c(O)c2)oc2cc(O)cc(O)c12", "note": "[Compound 1]", "values": [{"measurement": "inhibition at 1 µM", "setting": "human recombinant ENPP1 [1]; at 1 μM compound, AMP-GLO method, read-out: Inhibition of ENPP1 with cGAMP as the Substrate", "value": 76, "unit": "%"}, {"measurement": "inhibition at 10 µM", "setting": "human recombinant ENPP1 [1]; at 10 μM compound, AMP-GLO method, read-out: Inhibition of ENPP1 with cGAMP as the Substrate", "value": 99, "unit": "%"}, {"measurement": "cGAMP mediated IFNβ production", "setting": "THP-1 cells", "value": "augmentation of cGAMP mediated IFNβ production"}]}
{"smiles": "COc1cc2ccc(=O)n(Cc3ccc(NS(N)(=O)=O)cc3)c2cc1OC", "note": "[Compound 10]", "values": [{"measurement": "Substrate Selectivity Ki Ratio AMP-pNP/2′3′cGAMP", "setting": "human recombinant ENPP1 [1]; Ki (AMP-pNP)/Ki (2′3′-cGAMP)", "value": ">127"}, {"measurement": "Ki", "setting": "human recombinant ENPP1 [1]; read-out: ENPP1 inhibition Ki, cGAMP Substrate", "value": 234, "unit": "nM"}, {"measurement": "Ki", "setting": "human recombinant ENPP1 [2]", "value": "> 30000", "unit": "nM"}]}
{"smiles": "COc1cc2ncnc(N3CCC(CNS(N)(=O)=O)CC3)c2cc1OC", "note": "[Compound 13]", "values": [{"measurement": "Substrate Selectivity Ki Ratio AMP-pNP/2′3′cGAMP", "setting": "human recombinant ENPP1 [1]; Ki (AMP-pNP)/Ki (2′3′-cGAMP)", "value": 86.7}]}
{"smiles": "COc1cc2ncnc(N3CCC4(CC3)CCN(S(C)(=O)=O)C4)c2cc1OC", "note": "[Compound 19]", "values": [{"measurement": "Substrate Selectivity Ki Ratio AMP-pNP/2′3′cGAMP", "setting": "human recombinant ENPP1 [1]; Ki (AMP-pNP)/Ki (2′3′-cGAMP)", "value": 44.8}]}
